Several values for one entry are separate records, joined by “and”; a condition that tells them apart may be missing. Equal entries are not always repeated.
Key:
healthy male Wistar rats [1] = experiment: Series 2: BMOV cumulative infusion during adrenaline (or saline) infusion, blood glucose; assay type: in vivo, rat
Method: Glucose levels were measured at t=0, 120, 140, 160, 180 and 200 min.
Blood glucose levels were measured at each time point in duplicates by directly dripping blood onto DCont TREND test strips (77 Elektronika, Budapest, Hungary). […] Blood samples were centrifuged at 4.000 rpm at 4° C. for 15 min. The prepared, separated samples derived from the centrifuged plasma (total volume 200 μl) were kept at −70° C. until shipment.

healthy male Wistar rats [2] = experiment: Example 2: BMOV pre-treatment before adrenaline-induced stress hyperglycemia, blood glucose; assay type: in vivo, rat
Method: See Table 8 and Table 9 for further details.
Measurement of glucose levels was performed by DCont TREND glucometer. DCont TREND test strips (77 Elektronika, http://www.regolymedical.hu/en/measuring-tools-and-surgicalinstruments/vercukormero-d-cont-trend.html), in duplicate in order to determine blood glucose levels. See Table 9 for the blood sampling regime during the course of the experiment.

[3] = Saline + BMOV group, 0 min, before saline and BMOV
[4] = Saline + BMOV group, 120 min of saline, before BMOV dose 1
[5] = Saline + BMOV group, 140 min, after BMOV 1 (0.34 mg/kg iv over 20 min)
[6] = Saline + BMOV group, 180 min, after BMOV 3 (2.89 mg/kg, cumulative)
[7] = Saline + BMOV group, 200 min, after BMOV 4 (8.50 mg/kg, cumulative)
[8] = Tonogen + BMOV group (adrenaline 1 μg/kg/min), 0 min, before adrenaline and BMOV
[9] = Tonogen + BMOV group, 120 min of adrenaline, before BMOV dose 1
[10] = Tonogen + 1x BMOV (15 mg/kg ip 3 h before adrenaline 0.3 microgram/kg/min), 0 min
[11] = Tonogen + 1x BMOV (15 mg/kg ip 3 h before adrenaline), 30 min
[12] = Tonogen + 1x BMOV (15 mg/kg ip 3 h before adrenaline), 60 min
[13] = Tonogen + 1x BMOV (15 mg/kg ip 3 h before adrenaline), 90 min
[14] = Tonogen + 1x BMOV (15 mg/kg ip 3 h before adrenaline), 120 min
[15] = Tonogen + 1x BMOV (15 mg/kg ip 3 h before adrenaline), 150 min
[16] = Tonogen + 1x BMOV (15 mg/kg ip 3 h before adrenaline), 180 min
[17] = Tonogen + 2x BMOV (15 mg/kg ip 16-24 h and 3 h before adrenaline 0.3 microgram/kg/min), 0 min
[18] = Tonogen + 2x BMOV (15 mg/kg ip 16-24 h and 3 h before adrenaline), 30 min
[19] = Tonogen + 2x BMOV (15 mg/kg ip 16-24 h and 3 h before adrenaline), 60 min
[20] = Tonogen + 2x BMOV (15 mg/kg ip 16-24 h and 3 h before adrenaline), 90 min
[21] = Tonogen + 2x BMOV (15 mg/kg ip 16-24 h and 3 h before adrenaline), 120 min
[22] = Tonogen + 2x BMOV (15 mg/kg ip 16-24 h and 3 h before adrenaline), 150 min
[23] = Tonogen + 2x BMOV (15 mg/kg ip 16-24 h and 3 h before adrenaline), 180 min
[24] = two doses of BMOV at different time points before stress

SMILES: Cc1occc(=O)c1[O-].Cc1occc(=O)c1[O-].[O]=[V+2] [BMOV, Bis(maltolato)oxovanadium]
- Effect on the increase of the glucose level (healthy male Wistar rats [1]; BMOV administered after the start of and during continued stress (adrenaline infusion)): lowers the extent of the increase of the glucose level
- Blood glucose level, individual animal in duplicate (healthy male Wistar rats [1]; [3]): 4.7 mM/l and 4.8 mM/l
- Blood glucose level, mean (healthy male Wistar rats [1]; [3]): 4.75 mM/l
- Blood glucose level, individual animal in duplicate (healthy male Wistar rats [1]; [4]): 5.7 mM/l and 5.3 mM/l
- Blood glucose level, mean (healthy male Wistar rats [1]; [4]): 5.50 mM/l
- Blood glucose level, individual animal in duplicate (healthy male Wistar rats [1]; [5]): 6.3 mM/l
- Blood glucose level, mean (healthy male Wistar rats [1]; [5]): 6.30 mM/l
- Blood glucose level, mean (healthy male Wistar rats [1]; Saline + BMOV group, 160 min, after BMOV 2 (1.02 mg/kg, cumulative)): 6.60 mM/l
- Blood glucose level, individual animal in duplicate (healthy male Wistar rats [1]; Saline + BMOV group, 160 min, after BMOV 2 (1.02 mg/kg, cumulative), 1.02 mg/kg): 6.5 mM/l and 6.7 mM/l
- Blood glucose level, individual animal in duplicate (healthy male Wistar rats [1]; [6]): 5.9 mM/l
- Blood glucose level, mean (healthy male Wistar rats [1]; [6]): 5.90 mM/l
- Blood glucose level, individual animal in duplicate (healthy male Wistar rats [1]; [7]): 3.8 mM/l
- Blood glucose level, mean (healthy male Wistar rats [1]; [7]): 3.80 mM/l
- Blood glucose level, individual animals in duplicate (healthy male Wistar rats [1]; [8]): 8.4 mM/l and 7.8 mM/l and 6.0 mM/l (2×)
- Blood glucose level, mean (healthy male Wistar rats [1]; [8]): 7.05 mM/l
- Blood glucose level, individual animals in duplicate (healthy male Wistar rats [1]; [9]): 16.4 mM/l and 16.5 mM/l and 11.7 mM/l and 11.2 mM/l
- Blood glucose level, mean (healthy male Wistar rats [1]; [9]): 13.95 mM/l
- Blood glucose level, mean (healthy male Wistar rats [1]; Tonogen + BMOV group, 140 min, after BMOV 1 (0.34 mg/kg iv over 20 min)): 15.55 mM/l
- Blood glucose level, individual animals in duplicate (healthy male Wistar rats [1]; Tonogen + BMOV group, 140 min, after BMOV 1 (0.34 mg/kg iv over 20 min), 0.34 mg/kg): 17.9 mM/l and 17.5 mM/l and 13.5 mM/l and 13.3 mM/l
- Blood glucose level, mean (healthy male Wistar rats [1]; Tonogen + BMOV group, 160 min, after BMOV 2 (1.02 mg/kg, cumulative)): 15.18 mM/l
- Blood glucose level, individual animals in duplicate (healthy male Wistar rats [1]; Tonogen + BMOV group, 160 min, after BMOV 2 (1.02 mg/kg, cumulative), 1.02 mg/kg): 14.6 mM/l and 14.5 mM/l and 15.7 mM/l and 15.9 mM/l
- Blood glucose level, mean (healthy male Wistar rats [1]; Tonogen + BMOV group, 180 min, after BMOV 3 (2.89 mg/kg, cumulative)): 11.03 mM/l
- Blood glucose level, individual animals in duplicate (healthy male Wistar rats [1]; Tonogen + BMOV group, 180 min, after BMOV 3 (2.89 mg/kg, cumulative), 2.89 mg/kg): 7.8 mM/l and 7.9 mM/l and 14.2 mM/l (2×)
- Blood glucose level, mean (healthy male Wistar rats [1]; Tonogen + BMOV group, 200 min, after BMOV 4 (8.50 mg/kg, cumulative)): 7.28 mM/l
- Blood glucose level, individual animals in duplicate (healthy male Wistar rats [1]; Tonogen + BMOV group, 200 min, after BMOV 4 (8.50 mg/kg, cumulative), 8.5 mg/kg): 4.3 mM/l and 4.4 mM/l and 10.1 mM/l and 10.3 mM/l
- Effect on hyperglycemia compared to adrenaline+vehicle control group (healthy male Wistar rats [1]; adrenaline 1 μg/kg/min, at 160-180 min): significantly decreased hyperglycemia
- Effect of pretreatment on occurrence of hyperglycemia (healthy male Wistar rats [2]; BMOV 3 h before stress, or at 16-24 h and 3 h before stress (adrenaline infusion)): surprisingly high reduction of the occurrence of hyperglycemia
- Blood glucose, individual animals in duplicate (healthy male Wistar rats [2]; [10]): 6.1 mM/l and 6.7 mM/l and 5.1 mM/l and 4.9 mM/l and 6.3 mM/l and 5.9 mM/l
- Blood glucose, mean (healthy male Wistar rats [2]; [10]): 5.833 mM/l
- Blood glucose, individual animals in duplicate (healthy male Wistar rats [2]; [11]): 6.9 mM/l (2×) and 5.1 mM/l and 5.9 mM/l and 7.5 mM/l and 7.2 mM/l
- Blood glucose, mean (healthy male Wistar rats [2]; [11]): 6.583 mM/l
- Blood glucose, individual animals in duplicate (healthy male Wistar rats [2]; [12]): 8.4 mM/l and 8 mM/l and 6 mM/l (2×) and 9.7 mM/l and 10 mM/l
- Blood glucose, mean (healthy male Wistar rats [2]; [12]): 8.017 mM/l
- Blood glucose, individual animals in duplicate (healthy male Wistar rats [2]; [13]): 9.4 mM/l and 9.2 mM/l and 9.8 mM/l and 9.7 mM/l and 8.6 mM/l and 9 mM/l
- Blood glucose, mean (healthy male Wistar rats [2]; [13]): 9.283 mM/l
- Blood glucose, individual animals in duplicate (healthy male Wistar rats [2]; [14]): 10.7 mM/l and 11.2 mM/l and 12.2 mM/l and 11.5 mM/l and 4.6 mM/l and 4.7 mM/l
- Blood glucose, mean (healthy male Wistar rats [2]; [14]): 9.15 mM/l
- Blood glucose, individual animals in duplicate (healthy male Wistar rats [2]; [15]): 12.3 mM/l and 12.6 mM/l and 11.7 mM/l and 11.6 mM/l
- Blood glucose, mean (healthy male Wistar rats [2]; [15]): 12.05 mM/l
- Blood glucose, individual animals in duplicate (healthy male Wistar rats [2]; [16]): 12.4 mM/l and 12.2 mM/l and 11.9 mM/l (2×)
- Blood glucose, mean (healthy male Wistar rats [2]; [16]): 12.1 mM/l
- Blood glucose, individual animals in duplicate (healthy male Wistar rats [2]; [17]): 5.2 mM/l (2×) and 5.4 mM/l and 4.4 mM/l and 4.3 mM/l and 5.1 mM/l and 5.8 mM/l and 4.8 mM/l
- Blood glucose, mean (healthy male Wistar rats [2]; [17]): 5.025 mM/l
- Blood glucose, individual animals in duplicate (healthy male Wistar rats [2]; [18]): 5.2 mM/l and 4.8 mM/l and 5 mM/l (2×) and 5.3 mM/l (2×) and 6.3 mM/l and 6.1 mM/l
- Blood glucose, mean (healthy male Wistar rats [2]; [18]): 5.375 mM/l
- Blood glucose, individual animals in duplicate (healthy male Wistar rats [2]; [19]): 5.2 mM/l and 4.4 mM/l and 4.3 mM/l and 6.3 mM/l and 6.4 mM/l and 7.1 mM/l and 7 mM/l and 5.3 mM/l
- Blood glucose, mean (healthy male Wistar rats [2]; [19]): 5.75 mM/l
- Blood glucose, individual animals in duplicate (healthy male Wistar rats [2]; [20]): 5.8 mM/l (2×) and 3.4 mM/l and 3.2 mM/l and 6.4 mM/l and 6.8 mM/l and 8.5 mM/l and 8.2 mM/l
- Blood glucose, mean (healthy male Wistar rats [2]; [20]): 6.0125 mM/l
- Blood glucose, individual animals in duplicate (healthy male Wistar rats [2]; [21]): 6.7 mM/l (2×) and 2.7 mM/l and 2.6 mM/l and 7.4 mM/l and 7.7 mM/l and 9.1 mM/l and 8.6 mM/l
- Blood glucose, mean (healthy male Wistar rats [2]; [21]): 6.4375 mM/l
- Blood glucose, individual animals in duplicate (healthy male Wistar rats [2]; [22]): 7.4 mM/l and 1.4 mM/l and 1.3 mM/l and 7.7 mM/l (2×) and 7.9 mM/l and 7.6 mM/l and 7.5 mM/l
- Blood glucose, mean (healthy male Wistar rats [2]; [22]): 6.0625 mM/l
- Blood glucose, individual animals in duplicate (healthy male Wistar rats [2]; [23]): 6.7 mM/l and 7 mM/l and 6.8 mM/l and 4.6 mM/l and 4.8 mM/l and 6.9 mM/l
- Blood glucose, mean (healthy male Wistar rats [2]; [23]): 6.133 mM/l
- Effect on occurrence of hyperglycemia during the period of stress (healthy male Wistar rats [2]; first dose 16 to 24 h and second dose 3 h prior to stress): inhibited the occurrence of hyperglycemia
- Effect on extent of hyperglycemia during the period of stress (healthy male Wistar rats [2]; single dose of BMOV 3 h prior to stress): reduced the extent of hyperglycemia considerably
- Maximum average glucose level in the blood (healthy male Wistar rats [2]; [24]): about 6.4 mmol/l
- Rise in blood glucose level (healthy male Wistar rats [2]; [24]): ≤ 28%

From patent publication US20200246352A1, “Vanadyl and vanadate for use in reducing stress-induced metabolic derangement” (CFM Pharma Holding B.V., priority 2017, published 2020)
